Assay results from patent US9587005B2 (priority 2010, dated 2017).
Where two headings read alike, the source gives them in different places. Where a SMILES comes first, the peptide text is derived from it. [ ]: non-standard residue; d: D form. The star is where a group is joined. Phe(4-NH2) = Nc1ccc(C[C@H](N)C(=O)O)cc1; X6 = CCCCCCCCCCCCCCCCC(CC(=O)*)C(=O)O; Aib = CC(C)(N)C(=O)O

Tests used:
Assay type in all cases: cell-based
GLP-1 receptor = molecular target: T1, GLP-1 receptor (Homo sapiens, UniProt P43220); assay: cAMP induction, firefly luciferase reporter assay in HEK293 cells co-transfected with GLP-1 receptor
T1 construct: expressed in transfected cells; host or cells: HEK293
T1 sequence (P43220 24-463): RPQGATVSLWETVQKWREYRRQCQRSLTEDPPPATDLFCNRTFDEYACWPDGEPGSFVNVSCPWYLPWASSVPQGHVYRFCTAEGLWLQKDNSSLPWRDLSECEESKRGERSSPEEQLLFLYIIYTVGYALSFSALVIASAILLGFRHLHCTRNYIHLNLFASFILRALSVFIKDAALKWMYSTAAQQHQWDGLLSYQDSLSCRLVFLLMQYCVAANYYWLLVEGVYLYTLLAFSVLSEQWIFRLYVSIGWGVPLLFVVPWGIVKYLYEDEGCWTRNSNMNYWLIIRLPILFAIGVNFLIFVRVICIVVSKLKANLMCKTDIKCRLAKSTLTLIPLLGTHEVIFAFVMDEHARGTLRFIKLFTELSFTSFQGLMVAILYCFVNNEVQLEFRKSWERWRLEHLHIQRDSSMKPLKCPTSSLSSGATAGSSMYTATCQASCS
From the text: (§1) This example describes an exemplary method of testing the biological activity of the peptides of the present disclosures, which method involves assaying cAMP synthesis.

GIP receptor = molecular target: T2, GIP receptor (Homo sapiens, UniProt P48546); assay: cAMP induction, firefly luciferase reporter assay in HEK293 cells co-transfected with GIP receptor
T2 sequence (P48546 22-466): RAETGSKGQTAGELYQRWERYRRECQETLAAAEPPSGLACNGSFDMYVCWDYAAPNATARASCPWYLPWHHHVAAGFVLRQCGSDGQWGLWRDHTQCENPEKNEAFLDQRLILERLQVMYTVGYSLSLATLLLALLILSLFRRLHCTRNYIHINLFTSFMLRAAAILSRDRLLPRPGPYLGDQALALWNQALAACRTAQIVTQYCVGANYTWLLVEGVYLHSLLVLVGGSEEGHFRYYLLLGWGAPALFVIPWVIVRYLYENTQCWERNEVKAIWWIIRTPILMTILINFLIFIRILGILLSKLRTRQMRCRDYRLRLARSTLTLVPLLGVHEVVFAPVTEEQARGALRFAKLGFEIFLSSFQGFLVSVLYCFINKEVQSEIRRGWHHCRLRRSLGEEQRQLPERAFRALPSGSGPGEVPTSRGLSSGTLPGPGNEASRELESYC

glucagon receptor = molecular target: T3, glucagon receptor (Homo sapiens, UniProt P47871); assay: cAMP induction, firefly luciferase reporter assay in HEK293 cells co-transfected with glucagon receptor
T3 construct: expressed in transfected cells; host or cells: HEK293
T3 sequence (P47871 26-477): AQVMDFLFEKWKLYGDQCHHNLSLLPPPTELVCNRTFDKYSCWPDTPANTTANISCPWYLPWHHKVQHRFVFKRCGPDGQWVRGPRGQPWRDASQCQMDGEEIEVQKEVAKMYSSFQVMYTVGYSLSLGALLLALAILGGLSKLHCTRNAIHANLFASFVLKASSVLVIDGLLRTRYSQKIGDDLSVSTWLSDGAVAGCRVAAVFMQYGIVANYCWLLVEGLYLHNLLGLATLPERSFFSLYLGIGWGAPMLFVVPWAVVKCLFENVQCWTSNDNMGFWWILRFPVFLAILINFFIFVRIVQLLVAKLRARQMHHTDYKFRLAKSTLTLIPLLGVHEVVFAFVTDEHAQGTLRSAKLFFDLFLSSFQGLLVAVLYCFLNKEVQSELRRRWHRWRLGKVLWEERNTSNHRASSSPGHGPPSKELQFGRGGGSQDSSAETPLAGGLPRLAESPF
From the text: as §1

[1] = EC50 (nM) at GLP-1 Receptor, Table 4, Example 9, composite of multiple different activity assays
[2] = EC50 (nM) at Glucagon Receptor, Table 4, Example 9, composite of multiple different activity assays

**Q.** What does the source list for `CCCCCCCCCCCCCCCC(=O)N[C@@H](CCC(=O)NCCCC[C@H](NC(=O)[C@H](CC(=O)O)NC(=O)[C@H](CO)NC(=O)[C@@H](NC(=O)[C@H](Cc1ccccc1)NC(=O)[C@@H](NC(=O)CNC(=O)[C@H](CCC(N)=O)NC(=O)C(C)(C)NC(=O)[C@@H](N)Cc1c[nH]cn1)[C@@H](C)O)[C@@H](C)O)C(=O)N[C@@H](CO)C(=O)N[C@@H](CCCCN)C(=O)N[C@@H](Cc1ccc(O)cc1)C(=O)N[C@@H](CC(C)C)C(=O)N[C@@H](CC(=O)O)C(=O)N[C@@H](CCC(=O)O)C(=O)N[C@@H](CCCNC(=N)N)C(=O)N[C@@H](C)C(=O)N[C@@H](C)C(=O)N[C@@H](CCC(N)=O)C(=O)N[C@@H](CC(=O)O)C(=O)N[C@@H](Cc1ccccc1)C(=O)N[C@H](C(=O)N[C@@H](CCC(N)=O)C(=O)N[C@@H](Cc1c[nH]c2ccccc12)C(=O)N[C@@H](CC(C)C)C(=O)N[C@@H](CC(C)C)C(=O)N[C@@H](CC(=O)O)C(=O)NCC(=O)NCC(=O)N1CCC[C@H]1C(=O)N[C@@H](CO)C(=O)N[C@@H](CO)C(=O)NCC(=O)N[C@@H](C)C(=O)N1CCC[C@H]1C(=O)N1CCC[C@H]1C(=O)N1CCC[C@H]1C(=O)N[C@@H](CO)C(N)=O)C(C)C)C(=O)O` [SEQ ID NO: 28]?
**A.** EC50 (GLP-1 receptor; EC50 (nM) at GLP-1 receptor, Table 15, Example 23): 0.002 nM; EC50 (GLP-1 receptor; GLP-1 Receptor EC50, Table 10, Example 16): 0.007 nM; EC50 (GLP-1 receptor; Table 12, Example 19, read-out: EC50 (cAMP, nmole) GLPR): 0.003 nM; EC50 (GIP receptor; EC50 (nM) at GIP receptor, Table 15, Example 23): 0.002 nM; EC50 (GIP receptor; GIP (0.01), Table 8, Example 14, activity at the GIP receptor): 0.003 nM; EC50 (GIP receptor; Table 10, Example 16, read-out: GIP-1 Receptor EC50): 0.003 nM; EC50 (GIP receptor; Table 12, Example 19, read-out: EC50 (cAMP, nmole) GIPR): 0.007 nM; EC50 (glucagon receptor; EC50 (nM) at glucagon receptor, Table 15, Example 23): 0.002 nM; EC50 (glucagon receptor; EC50 (nM) at glucagon receptor, Table 16, Example 24): 0.003 nM

**Q.** Which EC50 (GLP-1 receptor) does the source give for `CCCCCCCCCCCCCCCCC(CC(=O)Nc1ccc(C[C@H](NC(=O)[C@H](CC(=O)O)NC(=O)[C@H](CO)NC(=O)[C@@H](NC(=O)[C@H](Cc2ccccc2)NC(=O)[C@@H](NC(=O)CNC(=O)[C@H](CCC(=O)O)NC(=O)C(C)(C)NC(=O)[C@@H](N)Cc2ccc(O)cc2)[C@@H](C)O)[C@@H](C)O)C(=O)N[C@@H](CO)C(=O)N[C@H](C(=O)N[C@@H](Cc2ccc(O)cc2)C(=O)N[C@@H](CC(C)C)C(=O)N[C@@H](CC(=O)O)C(=O)N[C@@H](CCCCN)C(=O)N[C@@H](CCC(N)=O)C(=O)N[C@@H](C)C(=O)N[C@@H](C)C(=O)NC(C)(C)C(=O)N[C@@H](CCC(=O)O)C(=O)N[C@@H](Cc2ccccc2)C(=O)N[C@H](C(=O)N[C@@H](CC(N)=O)C(=O)N[C@@H](Cc2c[nH]c3ccccc23)C(=O)N[C@@H](CC(C)C)C(=O)N[C@@H](CC(C)C)C(=O)N[C@@H](C)C(=O)NCC(=O)NCC(=O)N2CCC[C@H]2C(=O)N[C@@H](CO)C(=O)N[C@@H](CO)C(=O)NCC(=O)N[C@@H](C)C(=O)N2CCC[C@H]2C(=O)N2CCC[C@H]2C(=O)N2CCC[C@H]2C(=O)N[C@@H](CO)C(N)=O)C(C)C)[C@@H](C)CC)cc1)C(=O)O` (stereo partly shown) [SEQ ID NO: 144] (H-Y[Aib]EGTFTSD[Phe(4-NH2)](X6)SIYLDKQAA[Aib]EFVNWLLAGGPSSGAPPPS-NH2; N-terminus assumed) here?
**A.** The EC50 was 0.004 nM.

**Q.** And the EC50 (GIP receptor)?
**A.** The EC50 was 0.013 nM.

**Q.** And the EC50 (glucagon receptor)?
**A.** The EC50 was greater than 0.5 nM.

**Q.** Which results are given for `CCCCCCCCCCCCCCCC(=O)N[C@@H](CCC(=O)NCCCC[C@H](NC(=O)[C@H](CC(=O)O)NC(=O)[C@H](CO)NC(=O)[C@@H](NC(=O)[C@H](Cc1ccccc1)NC(=O)[C@@H](NC(=O)CNC(=O)[C@H](CCC(N)=O)NC(=O)[C@@H](CO)NC(=O)[C@@H](N)Cc1c[nH]cn1)[C@@H](C)O)[C@@H](C)O)C(=O)N[C@@H](CO)C(=O)N[C@@H](CCCCN)C(=O)N[C@@H](Cc1ccc(O)cc1)C(=O)N[C@@H](CC(C)C)C(=O)N[C@@H](CC(=O)O)C(=O)N[C@@H](CCC(=O)O)C(=O)N[C@@H](CCCNC(=N)N)C(=O)N[C@@H](C)C(=O)N[C@@H](C)C(=O)N[C@@H](CCC(N)=O)C(=O)N[C@@H](CC(=O)O)C(=O)N[C@@H](Cc1ccccc1)C(=O)N[C@H](C(=O)N[C@@H](CCC(N)=O)C(=O)N[C@@H](Cc1c[nH]c2ccccc12)C(=O)N[C@@H](CC(C)C)C(=O)N[C@@H](CC(C)C)C(=O)N[C@@H](CC(=O)O)C(=O)NCC(=O)NCC(=O)N1CCC[C@H]1C(=O)N[C@@H](CO)C(=O)N[C@@H](CO)C(=O)NCC(=O)N[C@@H](C)C(=O)N1CCC[C@H]1C(=O)N1CCC[C@H]1C(=O)N1CCC[C@H]1C(=O)N[C@@H](CO)C(N)=O)C(C)C)C(=O)O` [compound 27]?
**A.** EC50 (GLP-1 receptor; [1]): 0.002 nM; EC50 (glucagon receptor; [2]): 0.003 nM

**Q.** Which EC50 (GLP-1 receptor; [1]) does the source give for `CCCCCCCCCCCCCCCC(=O)N[C@@H](CCC(=O)NCCCC[C@H](NC(=O)[C@H](CC(=O)O)NC(=O)[C@H](CO)NC(=O)[C@@H](NC(=O)[C@H](Cc1ccccc1)NC(=O)[C@@H](NC(=O)CNC(=O)[C@H](CCC(N)=O)NC(=O)C(C)(C)NC(=O)[C@@H](N)Cc1cnc[nH]1)[C@@H](C)O)[C@@H](C)O)C(=O)N[C@@H](CO)C(=O)N[C@@H](CCCCN)C(=O)N[C@@H](Cc1ccc(O)cc1)C(=O)N[C@@H](CC(C)C)C(=O)N[C@@H](CC(=O)O)C(=O)N[C@@H](CCC(=O)O)C(=O)N[C@@H](CCCNC(=N)N)C(=O)N[C@@H](C)C(=O)N[C@@H](C)C(=O)N[C@@H](CCC(N)=O)C(=O)N[C@@H](CC(=O)O)C(=O)N[C@@H](Cc1ccccc1)C(=O)N[C@H](C(=O)N[C@@H](CCC(N)=O)C(=O)N[C@@H](Cc1c[nH]c2ccccc12)C(=O)N[C@@H](CC(C)C)C(=O)N[C@@H](CC(C)C)C(=O)N[C@@H](CC(=O)O)C(=O)NCC(=O)N[C@@H](CCCNC(=N)N)C(=O)NCC(N)=O)C(C)C)C(=O)O` [compound 29] here?
**A.** Its EC50 is 0.003 nM.

**Q.** And the EC50 (glucagon receptor; [2])?
**A.** Its EC50 is 0.007 nM.
